Assay results published in patent publication US20250340557A1, “PYRIMIDINE DERIVATIVE” (ASKA PHARMACEUTICAL CO., LTD., priority 2022, published 2025).

The compounds below were run against T1, human mPGES-1 (Homo sapiens, UniProt O14684) (assay: Test for mPGES-1 inhibitory activity (microsomal enzyme, PGE2 EIA)). Conditions: microsomes of COS-1 cells transfected with human mPGES-1 cDNA; PGH2 1 μM; 4° C., 4 minutes; PGE2 by EIA; read-out: h mPGES1 IC50.
T1 construct: made in house; host or cells: COS-1 cells (transient transfection; microsomal fraction used as enzyme)
T1 sequence (O14684 1-152): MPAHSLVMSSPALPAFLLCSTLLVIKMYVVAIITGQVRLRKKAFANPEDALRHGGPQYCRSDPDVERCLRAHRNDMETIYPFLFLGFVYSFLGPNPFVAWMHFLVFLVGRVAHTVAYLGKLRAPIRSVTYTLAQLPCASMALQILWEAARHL
Format: biochemical
How it was run: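 IC50 values were derived from EIA-quantified PGE2 after a 4 min, 4 °C reaction with PGH2 at 1 μM final, stopped with ferric chloride/citric acid. Beforehand, compound (2% DMSO final) sat 15 min at 4 °C with human mPGES-1 microsomes from transiently transfected COS-1 cells. Buffer was sodium phosphate pH 7.2 containing 2.5 mM reduced glutathione and 1 mM EDTA.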

| IC50 | Compound |
| --- | --- |
| < 1 nM | O=c1cc(C(F)(F)F)nc(-c2c(C(F)(F)F)ccc(CNC(=O)[C@H]3C[C@H](OCc4ccc(F)c(F)c4)C3)c2F)[nH]1 [Example 150, trans-3-[(3,4-difluorobenzyl)oxy]-N-{2-fluoro-3-[6-oxo-4-(trifluoromethyl)-1,6-dihydropyrimidin-2-yl]-4-(trifluoromethyl)benzyl}cyclobutane-1-carboxamide] |
| < 1 nM | O=c1cc(C(F)(F)F)nc(-c2c(C(F)(F)F)ccc(CNC(=O)[C@H]3C[C@H](OCc4cccc(F)c4)C3)c2F)[nH]1 [Example 152, trans-N-{2-fluoro-3-[6-oxo-4-(trifluoromethyl)-1,6-dihydropyrimidin-2-yl]-4-(trifluoromethyl)benzyl}-3-[(3-fluorobenzyl)oxy]cyclobutane-1-carboxamide] |
| < 1 nM | O=c1cc(C(F)(F)F)nc(-c2c(C(F)(F)F)ccc(CNC(=O)[C@H]3C[C@@H](OCc4ccc(F)c(Cl)c4)C3)c2F)[nH]1 [Example 158, cis-3-[(3-chloro-4-fluorobenzyl)oxy]-N-{2-fluoro-3-[6-oxo-4-(trifluoromethyl)-1,6-dihydropyrimidin-2-yl]-4-(trifluoromethyl)benzyl}cyclobutane-1-carboxamide] |
| < 1 nM | O=c1cc(C(F)F)nc(-c2c(C(F)(F)F)ccc(CNC(=O)[C@H]3C[C@H](OCc4ccccc4Cl)C3)c2F)[nH]1 [Example 161, trans-3-[(2-chlorobenzyl)oxy]-N-{3-[4-(difluoromethyl)-6-oxo-1,6-dihydropyrimidin-2-yl]-2-fluoro-4-(trifluoromethyl)benzyl}cyclobutane-1-carboxamide] |
| < 1 nM | O=c1cc(C(F)F)nc(-c2c(C(F)(F)F)ccc(CNC(=O)[C@H]3C[C@H](OCc4cccc(Cl)c4)C3)c2F)[nH]1 [Example 162, trans-3-[(3-chlorobenzyl)oxy]-N-{3-[4-(difluoromethyl)-6-oxo-1,6-dihydropyrimidin-2-yl]-2-fluoro-4-(trifluoromethyl)benzyl}cyclobutane-1-carboxamide] |
| < 1 nM | O=c1cc(C(F)F)nc(-c2c(C(F)(F)F)ccc(CNC(=O)[C@H]3C[C@H](OCc4cccc(C(F)(F)F)c4)C3)c2F)[nH]1 [Example 165, trans-N-{3-[4-(difluoromethyl)-6-oxo-1,6-dihydropyrimidin-2-yl]-2-fluoro-4-(trifluoromethyl)benzyl}-3-{[3-(trifluoromethyl)benzyl]oxy}cyclobutane-1-carboxamide] |
| < 1 nM | O=c1cc(C(F)F)nc(-c2c(C(F)(F)F)ccc(CNC(=O)[C@H]3C[C@H](OCc4ccc(F)cc4F)C3)c2F)[nH]1 [Example 167, trans-3-[(2,4-difluorobenzyl)oxy]-N-{3-[4-(difluoromethyl)-6-oxo-1,6-dihydropyrimidin-2-yl]-2-fluoro-4-(trifluoromethyl)benzyl}cyclobutane-1-carboxamide] |
| < 1 nM | O=c1cc(C(F)F)nc(-c2c(C(F)(F)F)ccc(CNC(=O)[C@H]3C[C@H](OCc4ccc(Cl)cc4F)C3)c2F)[nH]1 [Example 168, trans-3-[(4-chloro-2-fluorobenzyl)oxy]-N-{3-[4-(difluoromethyl)-6-oxo-1,6-dihydropyrimidin-2-yl]-2-fluoro-4-(trifluoromethyl)benzyl}cyclobutane-1-carboxamide] |
| < 1 nM | O=c1cc(C(F)F)nc(-c2c(C(F)(F)F)ccc(CNC(=O)[C@H]3C[C@H](OCc4ccc(F)c(F)c4)C3)c2F)[nH]1 [Example 169, trans-3-[(3,4-difluorobenzyl)oxy]-N-{3-[4-(difluoromethyl)-6-oxo-1,6-dihydropyrimidin-2-yl]-2-fluoro-4-(trifluoromethyl)benzyl}cyclobutane-1-carboxamide] |
| < 1 nM | O=c1cc(C(F)F)nc(-c2c(C(F)(F)F)ccc(CNC(=O)[C@H]3C[C@H](OCc4cccc(F)c4)C3)c2F)[nH]1 [Example 171, trans-N-{3-[4-(difluoromethyl)-6-oxo-1,6-dihydropyrimidin-2-yl]-2-fluoro-4-(trifluoromethyl)benzyl}-3-[(3-fluorobenzyl)oxy]cyclobutane-1-carboxamide] |
| < 1 nM | O=c1cc(C(F)F)nc(-c2c(C(F)(F)F)ccc(CNC(=O)[C@H]3C[C@H](OCc4cccc(F)c4F)C3)c2F)[nH]1 [Example 172, trans-3-[(2,3-difluorobenzyl)oxy]-N-{3-[4-(difluoromethyl)-6-oxo-1,6-dihydropyrimidin-2-yl]-2-fluoro-4-(trifluoromethyl)benzyl}cyclobutane-1-carboxamide] |

More lines, now with the values behind:

| Compound | IC50 |
| --- | --- |
| O=c1cc(C(F)(F)F)nc(-c2c(C(F)(F)F)ccc(CNC(=O)[C@H]3C[C@H](OCc4cc(F)cc(F)c4)C3)c2F)[nH]1 [Example 151, trans-3-[(3,5-difluorobenzyl)oxy]-N-{2-fluoro-3-[6-oxo-4-(trifluoromethyl)-1,6-dihydropyrimidin-2-yl]-4-(trifluoromethyl)benzyl}cyclobutane-1-carboxamide] | < 1 nM |
| O=c1cc(C(F)(F)F)nc(-c2c(C(F)(F)F)ccc(CNC(=O)[C@H]3C[C@H](OCc4cccc(F)c4F)C3)c2F)[nH]1 [Example 153, trans-3-[(2,3-difluorobenzyl)oxy]-N-{2-fluoro-3-[6-oxo-4-(trifluoromethyl)-1,6-dihydropyrimidin-2-yl]-4-(trifluoromethyl)benzyl}cyclobutane-1-carboxamide] | < 1 nM |
| O=c1cc(C(F)(F)F)nc(-c2c(C(F)(F)F)ccc(CNC(=O)[C@H]3C[C@H](OCc4ccc(F)cc4Cl)C3)c2F)[nH]1 [Example 154, trans-3-[(2-chloro-4-fluorobenzyl)oxy]-N-{2-fluoro-3-[6-oxo-4-(trifluoromethyl)-1,6-dihydropyrimidin-2-yl]-4-(trifluoromethyl)benzyl}cyclobutane-1-carboxamide] | < 1 nM |
| O=c1cc(C(F)(F)F)nc(-c2c(C(F)(F)F)ccc(CNC(=O)[C@H]3C[C@H](OCc4cccc(Cl)c4F)C3)c2F)[nH]1 [Example 155, trans-3-[(3-chloro-2-fluorobenzyl)oxy]-N-{2-fluoro-3-[6-oxo-4-(trifluoromethyl)-1,6-dihydropyrimidin-2-yl]-4-(trifluoromethyl)benzyl}cyclobutane-1-carboxamide] | < 1 nM |
| O=c1cc(C(F)(F)F)nc(-c2c(C(F)(F)F)ccc(CNC(=O)[C@H]3C[C@H](OCc4cc(Cl)ccc4F)C3)c2F)[nH]1 [Example 156, trans-3-[(5-chloro-2-fluorobenzyl)oxy]-N-{2-fluoro-3-[6-oxo-4-(trifluoromethyl)-1,6-dihydropyrimidin-2-yl]-4-(trifluoromethyl)benzyl}cyclobutane-1-carboxamide] | < 1 nM |
| O=c1cc(C(F)(F)F)nc(-c2c(C(F)(F)F)ccc(CNC(=O)[C@H]3C[C@H](OCc4ccc(F)c(Cl)c4)C3)c2F)[nH]1 [Example 157, trans-3-[(3-chloro-4-fluorobenzyl)oxy]-N-{2-fluoro-3-[6-oxo-4-(trifluoromethyl)-1,6-dihydropyrimidin-2-yl]-4-(trifluoromethyl)benzyl}cyclobutane-1-carboxamide] | < 1 nM |
| O=c1cc(C(F)(F)F)nc(-c2c(C(F)(F)F)ccc(CNC(=O)[C@H]3C[C@H](OCc4cc(F)cc(Cl)c4)C3)c2F)[nH]1 [Example 159, trans-3-[(3-chloro-5-fluorobenzyl)oxy]-N-{2-fluoro-3-[6-oxo-4-(trifluoromethyl)-1,6-dihydropyrimidin-2-yl]-4-(trifluoromethyl)benzyl}cyclobutane-1-carboxamide] | < 12 nM |
| O=c1cc(C(F)(F)F)nc(-c2c(C(F)(F)F)ccc(CNC(=O)[C@H]3C[C@@H](OCc4cc(F)cc(Cl)c4)C3)c2F)[nH]1 [Example 160, cis-3-[(3-chloro-5-fluorobenzyl)oxy]-N-{2-fluoro-3-[6-oxo-4-(trifluoromethyl)-1,6-dihydropyrimidin-2-yl]-4-(trifluoromethyl)benzyl}cyclobutane-1-carboxamide] | < 1 nM |
| O=c1cc(C(F)F)nc(-c2c(C(F)(F)F)ccc(CNC(=O)[C@H]3C[C@H](OCc4ccc(Cl)cc4)C3)c2F)[nH]1 [Example 163, trans-3-[(4-chlorobenzyl)oxy]-N-{3-[4-(difluoromethyl)-6-oxo-1,6-dihydropyrimidin-2-yl]-2-fluoro-4-(trifluoromethyl)benzyl}cyclobutane-1-carboxamide] | < 1 nM |
| O=c1cc(C(F)F)nc(-c2c(C(F)(F)F)ccc(CNC(=O)[C@H]3C[C@H](OCc4ccccc4C(F)(F)F)C3)c2F)[nH]1 [Example 164, trans-N-{3-[4-(difluoromethyl)-6-oxo-1,6-dihydropyrimidin-2-yl]-2-fluoro-4-(trifluoromethyl)benzyl}-3-{[2-(trifluoromethyl)benzyl]oxy}cyclobutane-1-carboxamide] | < 1 nM |
| O=c1cc(C(F)F)nc(-c2c(C(F)(F)F)ccc(CNC(=O)[C@H]3C[C@H](OCc4ccc(C(F)(F)F)cc4)C3)c2F)[nH]1 [Example 166, trans-N-{3-[4-(difluoromethyl)-6-oxo-1,6-dihydropyrimidin-2-yl]-2-fluoro-4-(trifluoromethyl)benzyl}-3-{[4-(trifluoromethyl)benzyl]oxy}cyclobutane-1-carboxamide] | 8.8 nM |
| O=c1cc(C(F)F)nc(-c2c(C(F)(F)F)ccc(CNC(=O)[C@H]3C[C@H](OCc4cc(F)cc(F)c4)C3)c2F)[nH]1 [Example 170, trans-3-[(3,5-difluorobenzyl)oxy]-N-{3-[4-(difluoromethyl)-6-oxo-1,6-dihydropyrimidin-2-yl]-2-fluoro-4-(trifluoromethyl)benzyl}cyclobutane-1-carboxamide] | 1.3 nM |
